Assay results published in patent US20230087118A1, “IMIDAZO[1,2-a][sequence] DERIVATIVES AND THEIR USE IN THE TREATMENT OF DISEASE” (priority 2019, published 2023).
Where a name gives a salt, the structure may show the parent alone. Read-outs that look alike come from different tables or passages of the source.

Biological target: T1, IRAK4 (Homo sapiens, UniProt Q9NWZ3)
T1 sequence (Q9NWZ3 1-460): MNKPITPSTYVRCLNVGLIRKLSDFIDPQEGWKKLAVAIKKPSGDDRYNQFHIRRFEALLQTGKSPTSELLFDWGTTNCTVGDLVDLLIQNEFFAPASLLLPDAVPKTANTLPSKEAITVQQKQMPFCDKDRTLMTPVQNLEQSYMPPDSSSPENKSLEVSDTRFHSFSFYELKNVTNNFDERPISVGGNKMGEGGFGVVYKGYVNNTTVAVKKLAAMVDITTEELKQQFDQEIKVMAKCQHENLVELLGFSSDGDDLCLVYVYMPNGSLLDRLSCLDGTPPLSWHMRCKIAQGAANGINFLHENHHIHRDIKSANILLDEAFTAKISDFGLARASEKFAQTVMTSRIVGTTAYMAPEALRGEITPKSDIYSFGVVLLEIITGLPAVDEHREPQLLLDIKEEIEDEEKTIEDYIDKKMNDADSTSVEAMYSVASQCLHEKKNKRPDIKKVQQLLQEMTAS
Assay: biochemical

[1] = IRAK4 Biochemical Assay (1 mM ATP, 2 h) IC50 (μM), 1 mM ATP, 2 h, 100 pM IRAK4

Row | IC50 [1] [µM] | IC50 [µM] | SMILES
1 |  | 0.0276 | COc1c(C(=O)Nc2cccc(C(F)F)n2)cn2cc(C34COC(C)(C3)C4)nc2c1C [Example 290, N-(6-(difluoromethyl)pyridin-2-yl)-7-methoxy-8-methyl-2-(1-methyl-2-oxabicyclo[2.1.1]hexan-4-yl)imidazo[1,2-a]pyridine-6-carboxamide]
2 |  | 0.0125 | COc1ncccc1NC(=O)c1cn2cc(C34COC(C)(C3)C4)nc2c(C)c1OC [Example 291, 7-Methoxy-N-(2-methoxypyridin-3-yl)-8-methyl-2-(1-methyl-2-oxabicyclo[2.1.1]hexan-4-yl)imidazo[1,2-a]pyridine-6-carboxamide]
3 |  | 0.0028 | COc1cc2nc(C34COC(C)(C3)C4)cn2cc1C(=O)Nc1cccc(C(F)F)n1 [Example 293, N-(6-(difluoromethyl)pyridin-2-yl)-7-methoxy-2-(1-methyl-2-oxabicyclo[2.1.1]hexan-4-yl)imidazo[1,2-a]pyridine-6-carboxamide]
4 |  | 0.0056 | CC(C)Oc1cc2nc(C(F)(F)F)cn2cc1C(=O)Nc1cccc(C(F)F)n1 [Example 294, N-(6-(difluoromethyl)pyridin-2-yl)-7-isopropoxy-2-(trifluoromethyl)imidazo[1,2-a]pyridine-6-carboxamide]
5 | 0.0097 |  | CC(C)Oc1cc2nc(C34COC(C)(C3)C4)cn2cc1C(=O)Nc1nccc(C(F)F)n1 [Example 295, N-(4-(difluoromethyl)pyrimidin-2-yl)-7-isopropoxy-2-(1-methyl-2-oxabicyclo[2.1.1]hexan-4-yl)imidazo[1,2-a]pyridine-6-carboxamide trifluoroacetate]
6 | 0.0011 |  | CC(C)Oc1cc2nc(C34COC(C)(C3)C4)cn2cc1C(=O)Nc1cccc(C2CC2)n1 [Example 296, N-(6-cyclopropylpyridin-2-yl)-7-isopropoxy-2-(1-methyl-2-oxabicyclo[2.1.1]hexan-4-yl)imidazo[1,2-a]pyridine-6-carboxamide trifluoroacetate]
7 | 0.0048 |  | CC(C)Oc1cc2nc(C34COC(C)(C3)C4)cn2cc1C(=O)Nc1ccn(C)n1 [Example 297, 7-Isopropoxy-N-(1-methyl-1H-pyrazol-3-yl)-2-(1-methyl-2-oxabicyclo[2.1.1]hexan-4-yl)imidazo[1,2-a]pyridine-6-carboxamide trifluoroacetate]
8 | 0.063 |  | CC(C)Oc1cc2nc(C34COC(C)(C3)C4)cn2cc1C(=O)Nc1cc2ccccn2n1 [Example 298, 7-Isopropoxy-2-(1-methyl-2-oxabicyclo[2.1.1]hexan-4-yl)-N-(pyrazolo[1,5-a]pyridin-2-yl)imidazo[1,2-a]pyridine-6-carboxamide trifluoroacetate]
9 |  | 0.0022 | COc1ccn2ncc(NC(=O)c3cn4cc(C56COC(C)(C5)C6)nc4cc3OC(C)C)c2n1 [Example 300, 7-Isopropoxy-N-(5-methoxypyrazolo[1,5-a]pyrimidin-3-yl)-2-(1-methyl-2-oxabicyclo[2.1.1]hexan-4-yl)imidazo[1,2-a]pyridine-6-carboxamide]
10 |  | 0.0066 | COc1ccc2ncc(NC(=O)c3cn4cc(C56COC(C)(C5)C6)nc4cc3OC(C)C)n2n1 [Example 301, 7-Isopropoxy-N-(6-methoxyimidazo[1,2-b]pyridazin-3-yl)-2-(1-methyl-2-oxabicyclo[2.1.1]hexan-4-yl)imidazo[1,2-a]pyridine-6-carboxamide]
11 |  | 0.0077 | CC(C)Oc1c(C(=O)Nc2cnn3cccnc23)cn2cc(C34COC(C)(C3)C4)nc2c1F [Example 302, 8-Fluoro-7-isopropoxy-2-(1-methyl-2-oxabicyclo[2.1.1]hexan-4-yl)-N-(pyrazolo[1,5-a]pyrimidin-3-yl)imidazo[1,2-a]pyridine-6-carboxamide]
12 |  | 0.0014 | CC(C)Oc1c(C(=O)Nc2cccc(C(F)F)n2)cn2cc(C3CCOCC3)nc2c1F [Example 303, N-(6-(difluoromethyl)pyridin-2-yl)-8-fluoro-7-isopropoxy-2-(tetrahydro-2H-pyran-4-yl)imidazo[1,2-a]pyridine-6-carboxamide]
13 | 0.0005 |  | COc1ncccc1NC(=O)c1cn2cc(C34COC(C)(C3)C4)nc2nc1OC(C)C [Example 305, 7-Isopropoxy-N-(2-methoxypyridin-3-yl)-2-(1-methyl-2-oxabicyclo[2.1.1]hexan-4-yl)imidazo[1,2-a]pyrimidine-6-carboxamide trifluoroacetate]
14 | 0.0031 |  | COc1ncc(F)cc1NC(=O)c1cn2cc(C34COC(C)(C3)C4)nc2nc1OC(C)C [Example 306, N-(5-fluoro-2-methoxypyridin-3-yl)-7-isopropoxy-2-(1-methyl-2-oxabicyclo[2.1.1]hexan-4-yl)imidazo[1,2-a]pyrimidine-6-carboxamide trifluoroacetate]
15 | 0.002 |  | COc1ccc2ncc(NC(=O)c3cn4cc(C56COC(C)(C5)C6)nc4nc3OC(C)C)n2n1 [Example 308, 7-Isopropoxy-N-(6-methoxyimidazo[1,2-b]pyridazin-3-yl)-2-(1-methyl-2-oxabicyclo[2.1.1]hexan-4-yl)imidazo[1,2-a]pyrimidine-6-carboxamide trifluoroacetate]
16 | 0.0299 |  | CC(C)Oc1nc2nc(C34COC(C)(C3)C4)cn2cc1C(=O)Nc1cnn2ccc(C(F)F)nc12 [Example 309, N-(5-(difluoromethyl)pyrazolo[1,5-a]pyrimidin-3-yl)-7-isopropoxy-2-(1-methyl-2 oxabicyclo[2.1.1]hexan-4-yl)imidazo[1,2-a]pyrimidine-6-carboxamide trifluoroacetate]
17 |  | 0.001 | CC(C)Oc1nc2nc(C34CC(C)(C3)OC4(C)C)cn2cc1C(=O)Nc1cnn2cc(F)cnc12 [Example 310, N-(6-fluoropyrazolo[1,5-a]pyrimidin-3-yl)-7-isopropoxy-2-(1,3,3-trimethyl-2-oxabicyclo[2.1.1]hexan-4-yl)imidazo[1,2-a]pyrimidine-6-carboxamide]
18 | 0.0014 |  | Cc1cnc2c(NC(=O)c3cn4cc(C56CC(C)(C5)OC6(C)C)nc4nc3OC(C)C)cnn2c1 [Example 311, 7-Isopropoxy-N-(6-methylpyrazolo[1,5-a]pyrimidin-3-yl)-2-(1,3,3-trimethyl-2-oxabicyclo[2.1.1]hexan-4-yl)imidazo[1,2-a]pyrimidine-6-carboxamide trifluoroacetate]
19 | 0.0021 |  | CC12CC(c3cn4cc(C(=O)Nc5cccc(C(F)F)n5)c(OC5CC5)nc4n3)(CO1)C2 [Example 312, 7-Cyclopropoxy-N-(6-(difluoromethyl)pyridin-2-yl)-2-(1-methyl-2-oxabicyclo[2.1.1]hexan-4-yl)imidazo[1,2-a]pyrimidine-6-carboxamide trifluoroacetate]
20 |  | 0.0036 | CC(C)Oc1cc2nc(C34COC(C)(C3)C4)cn2cc1C(=O)Nc1ccn(CC#N)n1 [Example 313, N-(1-(cyanomethyl)-1H-pyrazol-3-yl)-7-isopropoxy-2-(1-methyl-2-oxabicyclo[2.1.1]hexan-4-yl)imidazo[1,2-a]pyridine-6-carboxamide]
21 |  | 0.0258 | COCCn1ccc(NC(=O)c2cn3cc(C45COC(C)(C4)C5)nc3cc2OC(C)C)n1 [Example 314, 7-Isopropoxy-N-(1-(2-methoxyethyl)-1H-pyrazol-3-yl)-2-(1-methyl-2-oxabicyclo[2.1.1]hexan-4-yl)imidazo[1,2-a]pyridine-6-carboxamide]
22 | 0.0045 |  | CC(C)Oc1cc2nc(C34COC(C)(C3)C4)cn2cc1C(=O)Nc1ccn(C2CCCC2)n1 [Example 315, N-(1-cyclopentyl-1H-pyrazol-3-yl)-7-isopropoxy-2-(1-methyl-2-oxabicyclo[2.1.1]hexan-4-yl)imidazo[1,2-a]pyridine-6-carboxamide trifluoroacetate]
23 | 0.005 |  | CC(C)Oc1cc2nc(C34COC(C)(C3)C4)cn2cc1C(=O)Nc1cnn(C)n1 [Example 316, 7-Isopropoxy-N-(2-methyl-2H-1,2,3-triazol-4-yl)-2-(1-methyl-2-oxabicyclo[2.1.1]hexan-4-yl)imidazo[1,2-a]pyridine-6-carboxamide trifluoroacetate]
24 | 0.022 |  | CC(C)Oc1cc2nc(C34COC(C)(C3)C4)cn2cc1C(=O)Nc1ccno1 [Example 317, 7-Isopropoxy-N-(isoxazol-5-yl)-2-(1-methyl-2-oxabicyclo[2.1.1]hexan-4-yl)imidazo[1,2-a]pyridine-6-carboxamide trifluoroacetate]

Row | SMILES | IC50 [1] [µM] | IC50 [µM]
25 | CC(C)Oc1cc2nc(C34COC(CF)(C3)C4)cn2cc1C(=O)Nc1cccc(C(F)F)n1 [Example 289, N-(6-(difluoromethyl)pyridin-2-yl)-2-(1-(fluoromethyl)-2-oxabicyclo[2.1.1]hexan-4-yl)-7-isopropoxyimidazo[1,2-a]pyridine-6-carboxamide] | 0.0002 | 
26 | Cc1cnc2c(NC(=O)c3cn4cc(C56COC(C)(C5)C6)nc4c(F)c3OC(C)C)cnn2c1 [Example 292, 8-Fluoro-7-isopropoxy-2-(1-methyl-2-oxabicyclo[2.1.1]hexan-4-yl)-N-(6-methylpyrazolo[1,5-a]pyrimidin-3-yl)imidazo[1,2-a]pyridine-6-carboxamide trifluoroacetate] | 0.0026 | 
27 | CC(C)Oc1cc2nc(C34COC(C)(C3)C4)cn2cc1C(=O)Nc1cnn2cccnc12 [Example 299, 7-Isopropoxy-2-(1-methyl-2-oxabicyclo[2.1.1]hexan-4-yl)-N-(pyrazolo[1,5-a]pyrimidin-3-yl)imidazo[1,2-a]pyridine-6-carboxamide trifluoroacetate] | 0.0005 | 
28 | CC(C)Oc1nc2nc(C34COC(C)(C3)C4)cn2cc1C(=O)Nc1cnn2cccnc12 [Example 307, 7-Isopropoxy-2-(1-methyl-2-oxabicyclo[2.1.1]hexan-4-yl)-N-(pyrazolo[1,5-a]pyrimidin-3-yl)imidazo[1,2-a]pyrimidine-6-carboxamide] | 0.0005 | 
